# Data published in patent US20250297998A1, “SYSTEM AND METHODS FOR MEASURING AIRBORNE GLYCOL” (Grignard Pure LLC, priority 2022, published 2025).
# Assays:
# ASTM D1120 boiling point = assay type: physicochemical
# From the text: (§1) As a non-limiting example, the sanitizing formulation can include 52.25% TEG by weight, 1.00% PG by weight, and 46.75% water (e.g., deionized water) by weight. The properties of this particular example of the sanitizing formulation (and pure TEG as a comparative reference) is summarized in the table below
# ASTM D93 flash point = assay type: physicochemical
# From the text: as §1
# [1] = ASTM D4052 specific gravity; assay type: physicochemical
# From the text: as §1
# ASTM D117 freeze point = assay type: physicochemical
# From the text: as §1
# [2] = ASTM D445 kinematic viscosity; assay type: physicochemical
# From the text: as §1
# ASTM D323 vapor pressure = assay type: physicochemical; conditions: @ 20° C.
# From the text: as §1
# PLTL-15 Odor Test = assay type: physicochemical
# From the text: as §1
# [3] = Visual appearance and odor; assay type: physicochemical
# From the text: as §1
# [4] = cited from earlier work
smiles,measurement,setting,value
"OCCOCCOCCO [Pure TEG, triethylene glycol]",Boiling Point (° C.),ASTM D1120 boiling point,285° ° C.
same,Flash Point (° C.),ASTM D93 flash point,157° ° C.
same,Specific Gravity @ 20° C.,[1],1.12-1.13
same,Freeze Point ° C.,ASTM D117 freeze point,−7.0° ° C.
same,"Viscosity, Kinematic @ 40° C.",[2],42.3 cSt
same,Vapor Pressure (psi),ASTM D323 vapor pressure,0.0 psi @ 20 °C
same,Odor Test,PLTL-15 Odor Test,No Odor
same,Appearance and Odor,[3],Clear/Uniform
same,flash point,"[4]; TEG alone, flammable liquid",157 °C
same,boiling point,[4]; at a pressure of 101.325 kPa,286.5 °C
